PubChem BioAssay (NCI)
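Assay format: 96-well plates, 48-hour exposure. TGI: concentration producing complete growth inhibition.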

What was measured:
Experiment in all cases: NCI tumour cell line growth inhibition, 48 h
[1] = system: KM12 colon
[2] = system: UACC-62 melanoma
[3] = system: HOP-62 NSCLC
[4] = system: COLO 205 colon
[5] = system: MALME-3M melanoma
[6] = system: SK-OV-3 ovarian
[7] = system: MDA-MB-435
[8] = system: NCI-H226 lung
[9] = system: DU-145 prostate
[10] = system: M14 melanoma
[11] = system: SF-268 CNS
[12] = system: SK-MEL-28 melanoma
[13] = system: HS 578T breast
[14] = system: NCI-H23 lung
[15] = system: ACHN renal
[16] = system: NCI-H522 lung
[17] = system: NCI/ADR-RES ovarian
[18] = system: U251 CNS
[19] = system: K-562 leukemia
[20] = system: HT29 colon
[21] = system: MCF7 breast
[22] = system: NCI-H460 lung
[23] = system: RXF 393 renal
[24] = system: OVCAR-8 ovarian
[25] = system: SF-539 CNS
[26] = system: TK-10 renal
[27] = system: EKVX NSCLC
[28] = system: UO-31 renal
[29] = system: SR leukemia
[30] = system: HCC-2998 colon
[31] = system: MDA-MB-231 breast
[32] = system: HOP-92 NSCLC
[33] = system: SF-295 CNS
[34] = system: UACC-257 melanoma
[35] = system: CCRF-CEM leukemia
[36] = system: BT-549 breast
[37] = system: PC-3 prostate
[38] = system: HL-60(TB) leukemia
[39] = system: RPMI-8226 leukemia
[40] = system: A498 renal
[41] = system: 786-0 renal
[42] = system: SNB-75 CNS
[43] = system: SNB-19 CNS
[44] = system: SK-MEL-5 melanoma
[45] = system: IGROV1 ovarian
[46] = system: HCT-116 colon
[47] = system: HCT-15 colon
[48] = system: T-47D breast
[49] = system: CAKI-1 renal
[50] = system: SK-MEL-2 melanoma
[51] = system: MOLT-4 leukemia
[52] = system: OVCAR-4 ovarian
[53] = system: OVCAR-3 ovarian
[54] = system: OVCAR-5 ovarian
[55] = system: SN12C renal
[56] = system: A549 NSCLC

SMILES: COc1ccc(NC(/C(C(=O)C(=O)/C=C(\O)c2ccccc2)=C(\O)c2ccccc2)c2ccc(OC)cc2)cc1 (stereo unspecified)
- TGI [1]: > 100 µM
- TGI [2]: > 100 µM
- TGI [3]: > 100 µM
- TGI [4]: > 100 µM
- TGI [5]: 75.6 µM
- TGI [6]: > 100 µM
- TGI [7]: 59.1 µM
- TGI [8]: > 100 µM
- TGI [9]: > 100 µM
- TGI [10]: > 100 µM
- TGI [11]: > 100 µM
- TGI [12]: > 100 µM
- TGI [13]: > 100 µM
- TGI [14]: > 100 µM
- TGI [15]: > 100 µM
- TGI [16]: 50.5 µM
- TGI [17]: > 100 µM
- TGI [18]: > 100 µM
- TGI [19]: > 100 µM
- TGI [20]: > 100 µM
- TGI [21]: > 100 µM
- TGI [22]: > 100 µM
- TGI [23]: > 100 µM
- TGI [24]: > 100 µM
- TGI [25]: > 100 µM
- TGI [26]: > 100 µM
- TGI [27]: 50.9 µM
- TGI [28]: > 100 µM
- TGI [29]: > 100 µM
- TGI [30]: 62.3 µM
- TGI [31]: > 100 µM
- TGI [32]: 75.8 µM
- TGI [33]: > 100 µM
- TGI [34]: > 100 µM
- TGI [35]: > 100 µM
- TGI [36]: > 100 µM
- TGI [37]: > 100 µM
- TGI [38]: 75.3 µM
- TGI [39]: 69.1 µM
- TGI [40]: > 100 µM
- TGI [41]: > 100 µM
- TGI [42]: 51.9 µM
- TGI [43]: > 100 µM
- TGI [44]: > 100 µM
- TGI [45]: > 100 µM
- TGI [46]: > 100 µM
- TGI [47]: > 100 µM
- TGI [48]: 81.4 µM
- TGI [49]: > 100 µM
- TGI [50]: 89 µM
- TGI [51]: > 100 µM
- TGI [52]: > 100 µM
- TGI [53]: 94.1 µM
- TGI [54]: > 100 µM
- TGI [55]: > 100 µM
- TGI [56]: > 100 µM
